The target of the test is T1, mouse AhR (mAhr) (Mus musculus, UniProt P30561).
T1 construct: cytosolic protein from Hepa1c1c7 cells
T1 sequence (P30561 10-848): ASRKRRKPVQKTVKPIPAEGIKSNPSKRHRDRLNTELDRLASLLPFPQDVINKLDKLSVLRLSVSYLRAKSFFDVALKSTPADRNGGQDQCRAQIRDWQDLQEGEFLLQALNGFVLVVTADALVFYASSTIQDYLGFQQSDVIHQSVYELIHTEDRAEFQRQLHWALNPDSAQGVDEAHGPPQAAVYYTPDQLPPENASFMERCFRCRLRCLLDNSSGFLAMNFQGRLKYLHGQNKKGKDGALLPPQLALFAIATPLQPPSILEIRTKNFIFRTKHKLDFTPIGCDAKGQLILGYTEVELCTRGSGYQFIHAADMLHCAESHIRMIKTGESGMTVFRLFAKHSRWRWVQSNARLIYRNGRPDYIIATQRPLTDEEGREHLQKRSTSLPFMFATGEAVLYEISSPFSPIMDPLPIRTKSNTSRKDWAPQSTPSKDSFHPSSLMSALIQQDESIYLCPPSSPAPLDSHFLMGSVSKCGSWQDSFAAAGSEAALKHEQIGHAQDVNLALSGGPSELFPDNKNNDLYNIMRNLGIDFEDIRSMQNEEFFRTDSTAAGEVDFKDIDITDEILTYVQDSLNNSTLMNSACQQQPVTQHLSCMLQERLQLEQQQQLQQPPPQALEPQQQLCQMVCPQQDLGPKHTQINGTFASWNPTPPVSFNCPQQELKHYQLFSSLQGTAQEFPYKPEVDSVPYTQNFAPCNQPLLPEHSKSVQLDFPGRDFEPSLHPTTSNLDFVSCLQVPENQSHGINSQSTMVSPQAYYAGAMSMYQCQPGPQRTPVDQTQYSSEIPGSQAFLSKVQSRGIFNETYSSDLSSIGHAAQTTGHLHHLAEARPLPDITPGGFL
In words: [3H]-TCDD competitive radioligand binding; partial displacement (about […]) at […].

Usually IC50 stands for the concentration at which inhibition is half-maximal. A high value points to weaker potency in that assay. Regarding `CC/C=C\CC1=C(C)CCC1=O` [jasmone, 3-methyl-2-[(2Z)-pent-2-en-1-yl]cyclopent-2-en-1-one], the concentration for half-maximal inhibition (IC50) is greater than 609 µM.

These data come from paper PMC10648586, “Jasmone Is a Ligand-Selective Allosteric Antagonist of Aryl Hydrocarbon Receptor (AhR)” (International Journal of Molecular Sciences, 2023).
